Converted amounts (≈) assume the structure as drawn.
Each molecule was assayed on KB cells (human nasopharyngeal cancer cells) (assay: in vitro Antitumor test on KB cells (MTT)). Settings: 72 h, 3 days incubation.
Type: cell-based
Procedure: in vitro Antitumor test on KB cells (human nasopharyngeal cancer cells)
KB cells suspended in an RPMI1640 medium (mfd. by Nissui Seiyaku K. K.), which contained 10% of fetal calf serum, 100 U/mi of penicillin, 100 μg/ml of streptomycin, 5×10^-5 M of mercaptoethanol and 1 mM of sodium pyruvate, were inoculated in 1.25×10^3 portions (0.1 ml) into wells of a 96-well flat-bottomed microplate and then incubated in an incubator containing 5% of carbon dioxide at 37° C. for a day.
A compound of the present invention was dissolved in dimethyl sulfoxide in a concentration of 20 mg/ml and diluted with a 10% fetal calf serum-RPMI1640 culture medium to a concentration of 100 μg/ml. By using this concentration as the highest level, threefold serial dilution was performed with a 10% fetal calf serum-RPMI1640 culture medium. Then it was added in 0.1 ml portions into the wells of the above-mentioned plate wherein the KB cells had been incubated followed by incubation in the incubator containing 5% of carbon dioxide at 37° C. for 3 days.
After incubating, an MTT (3-(4,5-dimethylthiazol-2-yl)-2,5-diphenyltetrazolium bromide) solution (3.3 mg/ml) was added in 0.05 ml portions into the wells and the incubation was effected for additional 1 hour. After sucking off the supernatant from each well, the formazane thus formed was dissolved in 0.1 ml of dimethyl sulfoxide. Then the absorbance at 540 nm was measured with a microplate reader and employed as an indication of the vital cell count. In accordance with the following equation, the inhibitory ratio was calculated and the 50% inhibitory concentration (IC50) of the test compound was determined. [formula] T: absorbance of a well containing the test commpound. C: absorbance of a well containing no test compound.

Row | IC50 [µg/mL] | SMILES
1 | 0.1 (≈ 0.284 µM) | COc1ccc(S(=O)(=O)Nc2cccc3c2[nH]c2ccccc23)cc1 [Example 2, N-(9H-Carbazol-1-yl)-4-methoxybenzenesulfornamide]
2 | 0.17 (≈ 0.447 µM) | COc1ccc(S(=O)(=O)Nc2cccc3c(=O)c4ccccc4[nH]c23)cc1 [Example 4, N-(9(10H)-Acridinon-4-yl)-4-methoxyhenzenesulfonamide]
3 | 0.08 (≈ 0.217 µM) | COc1ccc(S(=O)(=O)Nc2cccc3c2Nc2ccccc2O3)cc1 [Example 5, 4-Methoxy-N-(10H-phenoxazin-1-yl)benzenesulfonamide]
4 | 0.09 (≈ 0.237 µM) | COc1ccc(S(=O)(=O)Nc2cccc3c2Nc2ccccc2CC3)cc1 [Example 6, N-(10,11-Dihydro-5H-dibenz(b,f)azepin-4-yl)-4-methoxybenzenesulfonamide]
5 | 0.23 (≈ 0.608 µM) | COc1ccc(S(=O)(=O)Nc2cccc3c2Nc2ccccc2C=C3)cc1 [Example 9, N-(5H-Dibenz[b,f]azepin-4-yl)-4-methoxybenzene-sulfonamilde]
6 | 0.25 (≈ 0.631 µM) | COc1ccc(S(=O)(=O)Nc2cccc3c2NC(=O)c2ccccc2O3)cc1 [Example 12, N-(Dibenrz(b,f)(1,4)oxazepin-11(10H)-on-9-yl)-4-methoxybenzenelfonamide]
7 | 0.026 (≈ 0.0713 µM) | COc1ccc(S(=O)(=O)Nc2cccc3cc4ccccc4nc23)cc1 [Example 14, N-(4-Acridinyl)-4-methoxybenzenesulfonamide]
8 | 0.15 (≈ 0.406 µM) | COc1ccc(S(=O)(=O)Nc2cccc3c2Nc2ncccc2O3)cc1 [Example 15, 4-Methoxy-N-(10H-pyrido(3,2-b)(1,4)benzoxazin-9-yl)-benzenesulfonamide]
9 | 0.022 (≈ 0.0596 µM) | COc1ccc(S(=O)(=O)Nc2cccc3c2Nc2cccnc2O3)cc1 [Example 16, 4-Methoxy-N-(5H-pyrido(2,3-b)(1,4)benzoxazin-6-yl)-benzenesulfonamide]
10 | 0.11 (≈ 0.277 µM) | COc1ccc(S(=O)(=O)Nc2cccc3c(=O)c4cc(O)ccc4[nH]c23)cc1 [Example 20, N-(7-Hydroxy-9(10H)-acridinon-4-yl)-4-methoxybenzene-sulfonamide]
11 | 0.17 (≈ 0.442 µM) | COc1ccc(S(=O)(=O)Nc2cccc3c2Nc2ccc(O)cc2O3)cc1 [Example 22, N-(7-Hvdroxy-10H-phenoxain-1-yl)-4-methoxybenzene-sulfonamide]
12 | 0.0061 (≈ 0.016 µM) | COc1ccc(S(=O)(=O)Nc2cccc3oc4cc(=O)ccc-4nc23)cc1 [Example 24, 4-Methoxy-N-(3H-phenoxazin-3-on-9-yl)benzene-sulfonamide]
13 | 0.016 (≈ 0.0402 µM) | COc1ccc(S(=O)(=O)Nc2cccc3sc4cc(=O)ccc-4nc23)cc1 [Example 25, 4-Methoxy-N-(3-phenothiazin-3-on-9-yl)benzene-sulfonamide]
14 | 0.15 (≈ 0.376 µM) | COc1ccc(S(=O)(=O)Nc2cccc3c2Nc2ccccc2CS3)cc1 [Example 26, N-(5,11-Dihydrobenzo(b,e)(1,4)thiazepin-6-yl)-4-metboxybenzenesulfonamide]
15 | 0.11 (≈ 0.288 µM) | COc1ccc(S(=O)(=O)Nc2cccc3c2N(C)c2ccccc2O3)cc1 [Example 29, 4-Methoxy-N-(10-methyl-10H-phenoxazin-1-yl)benzene-sulfonamide]
16 | 0.27 (≈ 0.683 µM) | COc1ccc(S(=O)(=O)Nc2cccc3c2Nc2ccc(C)cc2CN3)cc1 [Example 31, N-10,11-Dihydro-2-methyl-5H-dihenzn(b,e)(1,4)-diazepin-6-yl)-4-methoxyhenenesulfonamide]
17 | 0.043 (≈ 0.108 µM) | COc1ccc(S(=O)(=O)Nc2cccc3c2Nc2ccc(CO)cc2O3)cc1 [Example 33, N-(7-Hydroxymethyl-10-phenoxazin-1-yl)-4-methoxy-benzenesulfonamide]
18 | 0.25 (≈ 0.677 µM) | Nc1ccc(S(=O)(=O)Nc2cccc3c2Nc2ccccc2S3)cc1 [Example 34, 4-Amino-N-(10-phenothiazin-1-yl)benzenesulfonamide]
19 | 0.25 (≈ 0.647 µM) | COc1ccc(S(=O)(=O)Nc2cccc3c2Nc2cncnc2S3)cc1 [Example 35, 4-Melthoxy-N-(5H-pyrimido(4,5-b)(1,4)benzothizin-6-yl)benzenesulfonamide]
20 | 0.047 (≈ 0.123 µM) | Cc1ccc(S(=O)(=O)Nc2cccc3c2Nc2ccc(O)cc2CO3)cc1 [Example 38, N-(5,11-Ditiydro-2-hydroxydihenz(b,e)(1,4)oxazepin-6-yl)-4-methylbenzenesulfonamide]
21 | 0.26 (≈ 0.624 µM) | COc1ccc(S(=O)(=O)Nc2cc(F)cc3c2Nc2ccc(O)cc2CO3)cc1 [Example 39, N-(5,11-Dihydro-8-fluoro-2-hdroxydihenz(b,e)(1,4)-oxazepin-6-yl)-4-methoxybenrzenesilfonamide]
22 | 0.032 (≈ 0.0837 µM) | COc1ccc(S(=O)(=O)Nc2cccc3c2Nc2ccccc2OC3)cc1 [Example 40, N-(5,11-Dihydrodibenz(b,e)(1,4)oxalelpin-4-yl)-4-methoxybenzenesulfonamide]
23 | 0.13 (≈ 0.335 µM) | Cc1ccc(S(=O)(=O)Nc2cccc3c2Nc2ccc(O)cc2CO3)s1 [Example 42, N-(5,11-Dihydro-2-hydroxydihenz(b,e)(1,4)oxazepin-6-yl)-5-methyl-2-thiopbhenesulfonamide]
24 | 0.22 (≈ 0.502 µM) | COc1ccc(S(=O)(=O)Nc2cccc3c2Nc2ccc(NC(C)=O)cc2CN3)cc1 [Example 43, N-(2-Acetylamino-10,11-dibydro-5H-dibhenz(b,e)(1,4)-diazepin-6-yl)-4-methoxybenzenesulfonamide]
25 | 0.077 (≈ 0.169 µM) | COc1ccc(S(=O)(=O)Nc2cccc3c2Nc2ccc(OCCCO)cc2CN3)cc1 [Example 44, N-(10,11-Dihydro-2-(3-hydroxypropyloxy)-5H-dibenzo-(b,e)(1,4)(diazepin-6-yl)4-metbhoxybenzenesulfonamide]
26 | 0.016 (≈ 0.0384 µM) | COc1ccc(S(=O)(=O)Nc2cccc3c2Nc2ccc(F)c(O)c2CO3)cc1 [Example 45, N-(5,11-Dihydro-2-fluoro-1-hydroxydibenz(b,e)-(1,4)oxazepin-6-yl)-4-methoxybenzenesulfonamide]
27 | 0.25 (≈ 0.556 µM) | COc1ccc(S(=O)(=O)Nc2cccc3c2Nc2c(Cl)cc(F)c(O)c2CN3)cc1 [Example 46, N-(4-Chloro-10,11-dihvdro-2-fluoro-1-hvdroxy-5-dibenzo(b,e)(1,4)diazepin-6-yl)-4-methoxybenzene-sulfonamide]
28 | 0.078 (≈ 0.188 µM) | COc1ccc(S(=O)(=O)Nc2cccc3c2Nc2ccc(F)c(O)c2CN3)cc1 [Example 47, N-(10,11-Dihydro-2-fluoro-1-hydroxy-5H-dibenzo(b,e)-(1,4)diazepin-6-yl)-4-methoxybenzenesulfonamide]
29 | 0.028 (≈ 0.0689 µM) | COc1ccc(S(=O)(=O)Nc2cccc3c2Nc2ccc(C#N)cc2CN3)cc1 [Example 48, N-(2-Cyano-10,11-dihydro-5H-dibenzo(b,e)(1,4)diazepin-6-yl)-4-methoxybenzenesulfonamide]
30 | 0.08 (≈ 0.2 µM) | COc1ccc(S(=O)(=O)Nc2cccc3c2Nc2ccc(F)cc2NC3)cc1 [Example 49, N-(10,11-Dihydro-8-fluoro-5H-dibenzo(b,e)(1,4)-diazepin-4-yl)-4-methoxybenzenesulfonamide]

Row | SMILES | IC50 [µg/mL]
31 | CCN1Cc2ccccc2Nc2c(NS(=O)(=O)c3ccc(OC)cc3)cccc21 [Example 41, N-(10,11-Dihydro-10-ethyl-5H-dihenzo(b,e)(1,4)-diazepin-6-yl)-4-meltoxybenzenesulfonamnide] | 0.28 (≈ 0.684 µM)
